Data from PubChem BioAssay AID1949 (Southern Research Institute, 2009).
≈ marks a conversion by molar mass, not a printed value. Results filed as inconclusive are left out. Calls of active or inactive are those of the source. How the calls were made is not given here.

System: M. tuberculosis H37Rv growth inhibition
Experiment: Confirmatory growth inhibition assay against Mycobacterium tuberculosis H37Rv, potency (AID 1949);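 further: bacteria grown 7 days with compound before Alamar blue readout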

Row | SMILES | IC50
1 | COc1ccc(C2CC(=O)C3=C(C2)NC(C)=C(C(=O)Nc2ccccc2C)C3c2coc3ccc(C)cc3c2=O)cc1OC (stereo not drawn) | 3.7 µg/mL (≈ 6.26 µM)
2 | COc1ccc(-c2cc(C(F)F)n3ncc(C(=O)N4CCN(c5ccccc5)CC4)c3n2)cc1 | > 50 µg/mL (inactive)
3 | CC1C(c2ccc(Cl)cc2)NC(c2ccc(Cl)cc2)C(C)C1(O)c1ccc(F)cc1 (stereo not drawn) | > 50 µg/mL (inactive)
4 | COC(=O)COc1ccc2c(=O)c(Oc3ccccc3)c(C(F)(F)F)oc2c1 | 6.6 µg/mL (≈ 16.7 µM)
5 | CCn1cc(C(=O)O)c(=O)c2cc(F)c(N3CCN(C(=S)NC)CC3)cc21 | 11.8 µg/mL (≈ 30.1 µM)
6 | COC(=O)c1ccc(N2C(=O)CC(N(CCc3ccccc3)C(=S)Nc3ccccc3)C2=O)cc1 (stereo not drawn) | 2.77 µg/mL (≈ 5.68 µM)
7 | C/C(=N/N=C1\NC(=O)C(Cc2ccc(F)cc2)S1)c1ccc(Cl)cc1 (stereo not drawn) | 1.48 µg/mL (≈ 3.94 µM)
8 | C=CS(=O)c1sc(Cl)c(N2CCOCC2)c1[N+](=O)[O-] (stereo not drawn) | 5.77 µg/mL (≈ 17.9 µM)
9 | Cc1cc([N+](=O)[O-])ccc1NC(=O)Nc1cccc(C(F)(F)F)c1 | 0.24 µg/mL (≈ 0.707 µM)
10 | CCN(CC)c1ccc(NC(=O)c2ccc([N+](=O)[O-])o2)c(C)c1 | 0.52 µg/mL (≈ 1.64 µM)
11 | COc1ccc(CNc2ccc3c(c2)ncn3-c2ccccc2)cc1OC | 8.63 µg/mL (≈ 24 µM)
12 | CC(C)(C)c1ccc(C(=O)NC(=S)NCc2ccco2)cc1 | 2.16 µg/mL (≈ 6.83 µM)
13 | O=C1c2ccccc2C(=O)c2c1nc1n2CCCC1 | > 50 µg/mL (inactive)
14 | O=C(CCNc1cccc(Cl)c1)c1ccc([N+](=O)[O-])cc1 | 2.87 µg/mL (≈ 9.42 µM)
15 | CCOC(=O)/C=C/C(=O)Nc1nc(-c2ccccc2)cs1 | 0.53 µg/mL (≈ 1.75 µM)
16 | c1ccc(CCN2CCN(c3ncnc4sc5c(c34)CCCC5)CC2)cc1 | 23.9 µg/mL (≈ 63.2 µM)
17 | Cc1ccc(NC(=O)CC2COc3ccccc3O2)cc1Cl (stereo not drawn) | 1.56 µg/mL (≈ 4.91 µM)
18 | Fc1ccccc1C1NC(=S)NC2=C1CCc1ccccc12 (stereo not drawn) | 9.36 µg/mL (≈ 30.2 µM)
19 | COC(=O)CSc1nnc(NC(=O)c2ccc(Cl)cc2)s1 | 0.16 µg/mL (≈ 0.465 µM)
20 | O=C(c1ccc2ccccc2c1)N(C1CCCCC1)C1CCCCC1 | 43 µg/mL (≈ 128 µM)

Row | SMILES | IC50
21 | Cc1ccc(NC(=S)c2ccccn2)cc1 | 0.99 µg/mL (≈ 4.34 µM)
22 | Cc1ccc(Cl)cc1N(CC(=O)Nc1ccc(I)cc1)S(C)(=O)=O | 4.66 µg/mL (≈ 9.73 µM)
23 | CCOC(=O)c1cc(=O)c(-c2ccccc2)n[nH]1 | 3.8 µg/mL (≈ 15.6 µM)
24 | O=C(Nc1nc2c(Cl)cccc2s1)c1ccc([N+](=O)[O-])o1 | 1.58 µg/mL (≈ 4.88 µM)
25 | CCC(C)NCCCCOc1ccc(Cl)cc1C(C)(C)C (stereo not drawn) | 4.49 µg/mL (≈ 14.4 µM)
26 | c1ccc2c(NCCc3c[nH]c4ccccc34)c3ccccc3nc2c1 | 1.51 µg/mL (≈ 4.48 µM)
27 | O=C(NC1CCCCC1)N1CCN(Cc2ccc3c(c2)OCO3)CC1 | 0.39 µg/mL (≈ 1.13 µM)
28 | COC(=O)c1ccc(COC(=O)c2ccccc2OC)cc1 | 2.87 µg/mL (≈ 9.56 µM)
29 | C#CCSc1nnc(-c2ccc([N+](=O)[O-])cc2)o1 | < 0.1 µg/mL
30 | CC(C)OC(=O)C(C)n1cnc2scc(-c3ccc(Br)cc3)c2c1=O (stereo not drawn) | 8.3 µg/mL (≈ 19.7 µM)
31 | c1ccc2nc3c(nc2c1)Nn1cnnc1S3 | > 50 µg/mL (inactive)
32 | O=C(Nc1nccs1)c1cn(-c2ccccc2)nc1-c1ccco1 | > 50 µg/mL (inactive)
33 | O=C1C(=O)N(Cc2ccccc2Cl)c2ccc(Cl)cc21 | 9.36 µg/mL (≈ 30.6 µM)
34 | Cc1ccccc1C(=O)N1CCN(c2ccc(NC(=S)NC(=O)c3cccc(Cl)c3)cc2)CC1 | > 50 µg/mL (inactive)
35 | O=C(CSc1nnc(-c2ccncc2)o1)Nc1ccc(Cl)cn1 | 5.59 µg/mL (≈ 16.1 µM)
36 | N#Cc1c(NC(=S)NC(=O)C2CCCC2)sc2c1CCCC2 | 28.4 µg/mL (≈ 85.2 µM)
37 | Cc1ccc(-c2[nH]c(-c3ccc([N+](=O)[O-])cc3)nc2-c2ccccc2)cc1 | 7.13 µg/mL (≈ 20.1 µM)
38 | O=C(Nc1ccc([N+](=O)[O-])cc1)c1cc(Br)ccc1O | 17.9 µg/mL (≈ 53.2 µM)
39 | CCC(C)Oc1ccc(C(=O)NC(=S)Nc2ccc(N3CCOCC3)cc2)cc1 (stereo not drawn) | 1.22 µg/mL (≈ 2.95 µM)
40 | COc1ccc(F)cc1CN1CCN(c2ncnc3scc(-c4ccc(F)cc4)c23)CC1 | > 50 µg/mL (inactive)

Row | SMILES | IC50
41 | CC(C)OC(=O)C(C)Oc1ccc(C(=O)NCCc2ccccc2)cc1 (stereo not drawn) | 48.3 µg/mL (≈ 136 µM)
42 | CN(C)C(=O)CSc1cccc2cccnc12 | 6.25 µg/mL (≈ 25.4 µM)
43 | CC1CCCc2sc(NC(=S)NC(=O)c3ccccc3)c(C#N)c21 (stereo not drawn) | 0.94 µg/mL (≈ 2.64 µM)
44 | CCc1ccc(OCC(=O)NC2CCCCC2)c(Br)c1 | > 50 µg/mL (inactive)
45 | Cc1ccc2cccc(OCC(=O)c3ccc(C)c(C)c3)c2n1 | 11.3 µg/mL (≈ 37.2 µM)
46 | CCOC(=O)COc1ccc2c(=O)c(Oc3ccccc3Cl)coc2c1 | 2.08 µg/mL (≈ 5.55 µM)
47 | COC(=O)c1cc(NC(=O)Nc2cccc(Cl)c2)cc(C(=O)OC)c1 | 0.18 µg/mL (≈ 0.496 µM)
48 | Cc1cccc2c1N(CCOc1ccc(C(C)(C)C)cc1)C(=O)C2=O | > 50 µg/mL (inactive)
49 | COCCNCCCCOc1ccc(Cl)cc1C(C)(C)C | 4.62 µg/mL (≈ 14.7 µM)
50 | Cc1cccc(NC(=S)NCCN2CCN(c3ccc(F)c(Cl)c3)CC2)c1C | 2.79 µg/mL (≈ 6.63 µM)
51 | Cc1ccc(SC(C)C(=O)Nc2ccc(Cl)c(Cl)c2)cc1 (stereo not drawn) | 12.3 µg/mL (≈ 36.1 µM)
52 | CCc1nc2sc(C(=O)c3ccccc3)c(N)c2cc1C | > 50 µg/mL (inactive)
53 | Cc1cc(C)cc(OCC(=O)Nc2ccc3oc(-c4ccc(F)cc4)nc3c2)c1 | > 50 µg/mL (inactive)
54 | CCOC(=O)COc1ccc2ccccc2c1/C=C(\C)[N+](=O)[O-] | 0.5 µg/mL (≈ 1.59 µM)
55 | Cc1ccc(Cc2ccc(C(=O)Nc3ccc(C)c(C)c3)o2)cc1 | 0.18 µg/mL (≈ 0.564 µM)
56 | O=c1c2cccc3c2c(nn1CCN1CCCCC1)-c1ccccc1-3 | 2.84 µg/mL (≈ 8.57 µM)
57 | CCOC(=O)C1CCN(C2=NC(=O)/C(=C\c3ccc(Cl)cc3Cl)S2)CC1 | 0.41 µg/mL (≈ 0.992 µM)
58 | CCc1cc2c(=O)c(-c3ccc4c(c3)OCCO4)coc2cc1OCC(=O)OC(C)C | 5.83 µg/mL (≈ 13.7 µM)
